What all share (type): in vivo
One data set has as its system person with glioblastoma. The experiment in a line: Working Example XI: patient with glioblastoma. The conditions noted are these: oral capsule: 6 mg auranofin and 50 mg isosorbide dinitrate, or 6 mg auranofin and 150 mg/m^2 BCNU, or 2.5 mg auranofin and 2 gm L-BSO every 6 hours. The procedure: A person with glioblastoma is given orally a capsule containing 6 mg auranofin and 50 mg isosorbide dinitrate or 6 mg auranofin and 150 mg/m^2 BCNU or 2.5 mg auranofin and 2 gm L-BSO given every 6 hours. Regression in the cancer occurs.

Another data set has as its system person with septic shock. The experiment in a line: Working Example IX: patient with septic shock. The settings on record: combination: gene therapy for TrxIP and 15 mg/kg intravenous L-NMMA (2 mg/kg IV TID). The protocol: A person with septic shock is given gene therapy for TrxIP and 15 mg/kg intravenous L-NMMA (2 mg/kg IV TID).
Data set [1] has as its system person with Parkinson's disease. The experiment in a line: Working Example III: patient with Parkinson's disease. The conditions noted are these: combination: orally 300 mg N-acetylcysteine and 0.3 mg aptamer directed at Parkin by injection into spinal fluid, 30 days. The protocol: A person with Parkinson's disease is given orally 300 mg N-acetylcysteine and 0.3 mg dose by injection into spinal fluid (range may be 10 μg-2 mg of body weight) of aptamer directed at Parkin for 30 days. Movement improves.

A further data set deals with person with Alzheimer's. The experiment in a line: Working Example IV: patient with Alzheimer's. The conditions noted are these: combination: NAC 300 mg/day, ascorbate 1 gm/day and minocycline 100 mg TID. The procedure:
A person with Alzheimer's is then started on combination of NAC (300 mg/day), ascorbate 1 gm/day and minocycline 100 mg TID and memory improves.

In data set [2] the test system is person with rhematoid arthritis. The experiment in a line: Working Example VII: patient with rheumatoid arthritis. The conditions noted are these: combination: deprenyl 10 mg plus ascorbate 1 gm plus ISDN 5 mg PO TID or plus cysteine or NaHS (final concentration in blood 10 μM-1 mM). The procedure: A person with rhematoid arthritis is administered deprenyl 10 mg plus ascorbate 1 gm plus ISDN 5 mg PO TID or plus cysteine or NaHS (final concentration in blood of 10 μM-1 mM). Progression of the disease slows.

Another data set concerns 65 year with Alzheimers. The experiment in a line: Working Example VI: patient with Alzheimers. The conditions noted are these: combination: deprenyl 15 mg and S-nitrosoglutathione 10 mg po TID. The procedure:
A 65 year with Alzheimers is administered deprenyl 15 mg and S-nitrosoglutathione 10 mg po TID. Blood pressure is unaltered but memory improves.

The test system of data set [3] is person with large cell lymphoma disease. The experiment in a line: Working Example I: patient with large cell lymphoma given auranofin plus isosorbide dinitrate. The conditions noted are these: combination: 6 mg auranofin and 50 mg isosorbide dinitrate by mouth once a day for a month; patient not responding to treatment. The protocol:
A person with large cell lymphoma disease who was not responding to treatment was given by mouth 6 mg auranofin and 50 mg isosorbide dinitrate once a day for a month. Tumor burden decreases as determined by CAT scan.

A further data set has as its system with muscular dystrophy. The experiment in a line: Working Example V: patient with muscular dystrophy. The settings on record: combination: deprenyl 10 mg/day plus isosorbide dinitrate (ISDN) 10 mg/day. The procedure: A person with muscular dystrophy is given deprenyl 10 mg/day plus isosorbide dinitrate (ISDN) 10 mg/day and weakness improves.
Data set [4] deals with person with central core disease, malignant hyperthermia (MH). The experiment in a line: Working Example VIII: patient with central core disease and malignant hyperthermia. The conditions noted are these: combination: deprenyl 10 mg and ISDN 5 mg po tid. The procedure:
A person with central core disease undergoes operation for pancreatic cancer and course complicated by malignant hyperthermia (MH). The patient is administered deprenyl 10 mg and ISDN 5 mg po tid with acute relief of MH and improvement in muscle function over time.

Data set [5] deals with person with recurrent restenosis. The experiment in a line: Working Example II: patient with recurrent restenosis given arsenic trioxide plus nitrate. The conditions noted are these: combination: 0.15 mg/kg/day IV arsenic trioxide and either 60 mg isosorbide mononitrate per day or nitroglycerin patch 1-2 inches up to 4 times a day; after one month. The procedure:
A person with recurrent restenosis is give 0.15 mg/kg/day IV arsenic trioxide and either 60 mg isosorbide mononitrate per day or nitroglycerin patch of 1-2 inches up to 4 times a day.

Data set [6] deals with person with pancreatic cancer. The experiment in a line: Working Example X: patient with pancreatic cancer. The conditions noted are these: combination: gene therapy for TrxIP and 10 gms sodium ascorbate by infusion per day. From the text:
A person with pancreatic cancer is given gene therapy for TrxIP and by infusion per day 10 gms of sodium ascorbate. The cancer regresses.

Consider `O=NN(CCCl)C(=O)NCCCl` [BCNU, carmustine], for which, in the data set with person with glioblastoma, the “Regression in the cancer” value is “Regression”.
Same read-out and setting: to `CCCCS(=N)(=O)CCC(N)C(=O)O` [L-BSO, L-buthionine-SR-sulfoximine] belongs “Regression”.
Turning to `CC(=O)O.CNC(=N)NCCC[C@H](N)C(=O)O` [L-NMMA, Ng-monomethyl-L-arginine, monoacetate salt], the Blood pressure entry with person with septic shock was “increases and stabilizes”.
As to `CC(=O)N[C@@H](CS)C(=O)O` [N-acetylcysteine], the Movement entry in [1] is recorded as “improves”. In addition, the memory entry in the data set on person with Alzheimer's is listed as “improves”.
With `[Na+].[SH-]` [NaHS], the “Progression of the disease” value in data set [2] is recorded as “slows”.
Take `N[C@@H](CCC(=O)N[C@@H](CSN=O)C(=O)NCC(=O)O)C(=O)O` [S-nitrosoglutathione]: the memory result in the data set with 65 year with Alzheimers was “improves”.
Turning to `CC(=O)OC[C@H]1O[C@@H]([S-])[C@H](OC(C)=O)[C@@H](OC(C)=O)[C@@H]1OC(C)=O.CCP(CC)CC.[Au+]` [auranofin], the “Tumor burden as determined by CAT scan” value in [3] is on record as “decreases”. For the same molecule, the “Regression in the cancer” value with person with glioblastoma was “Regression”.
With `N[C@@H](CS)C(=O)O` [cysteine], the “Progression of the disease” value in [2] is on record as “slows”.
Take `C#CCN(C)[C@H](C)Cc1ccccc1` [deprenyl]: the weakness result in the data set on with muscular dystrophy is reported as “improves”. Also, in the data set on 65 year with Alzheimers, the Blood pressure entry was “unaltered” and the memory result was “improves”. Further, the “Progression of the disease” value in data set [2] was “slows”. In addition, in data set [4], the “muscle function over time” value is listed as “improvement” and the “relief of MH (malignant hyperthermia)” value was “acute relief”.
Take `O=[N+]([O-])O[C@H]1CO[C@H]2[C@@H]1OC[C@H]2O[N+](=O)[O-]` [isosorbide dinitrate]: the “Tumor burden as determined by CAT scan” value in data set [3] was “decreases”. For the same molecule, the weakness result in the data set on with muscular dystrophy is listed as “improves”. In addition, the “Progression of the disease” value in [2] was “slows”. In [4], the “muscle function over time” value was “improvement” and the “relief of MH (malignant hyperthermia)” value is recorded as “acute relief”. In addition, the “Regression in the cancer” value with person with glioblastoma is recorded as “Regression”.
As to `O=[N+]([O-])O[C@@H]1CO[C@H]2[C@@H]1OC[C@@H]2O` [isosorbide mononitrate], in data set [5], the “disease (restenosis)” value is given as “abates”, the “incidence of thrombotic complication” value was “disappears” and the restenosis recurrence entry is listed as “does not reoccur”.
For the molecule `O=[N+]([O-])OCC(CO[N+](=O)[O-])O[N+](=O)[O-]` [nitroglycerin], in data set [5], the “disease (restenosis)” value is listed as “abates”, the “incidence of thrombotic complication” value is “disappears” and the restenosis recurrence entry is “does not reoccur”.
As to `O=C1O[C@H]([C@@H](O)CO)C([O-])=C1O.[Na+]` [sodium ascorbate], the cancer regression result in data set [6] is given as “regresses”.
Turning to arsenic trioxide, in data set [5], the “disease (restenosis)” value is reported as “abates”, the “incidence of thrombotic complication” value was “disappears” and the restenosis recurrence entry is given as “does not reoccur”.
